Measured values reported in PubChem BioAssay (NCI).
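Protocol summary: plate cells (96-well), add compound at 5 concentrations, incubate 48 h, interpolate endpoints linearly. GI50 marks 50% less growth. TGI denotes the concentration required for complete inhibition of growth.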

Assays:
Test in all cases: inhibition of tumour cell growth, NCI panel, 48 h
786-0 renal = test system: 786-0 renal
A498 renal = test system: A498 renal
A549 NSCLC = test system: A549 NSCLC
ACHN renal = test system: ACHN renal
BT-549 breast = test system: BT-549 breast
CAKI-1 renal = test system: CAKI-1 renal
CCRF-CEM leukemia = test system: CCRF-CEM leukemia
COLO 205 colon = test system: COLO 205 colon
DU-145 prostate = test system: DU-145 prostate
EKVX NSCLC = test system: EKVX NSCLC
HCC-2998 colon = test system: HCC-2998 colon
HCT-116 colon = test system: HCT-116 colon
HCT-15 colon = test system: HCT-15 colon
HL-60(TB) leukemia = test system: HL-60(TB) leukemia
HOP-62 NSCLC = test system: HOP-62 NSCLC
HOP-92 NSCLC = test system: HOP-92 NSCLC
HS 578T breast = test system: HS 578T breast
HT29 colon = test system: HT29 colon
IGROV1 ovarian = test system: IGROV1 ovarian
K-562 leukemia = test system: K-562 leukemia
KM12 colon = test system: KM12 colon
LOX IMVI melanoma = test system: LOX IMVI melanoma
M14 melanoma = test system: M14 melanoma
MALME-3M melanoma = test system: MALME-3M melanoma
MCF7 breast = test system: MCF7 breast
MDA-MB-231 breast = test system: MDA-MB-231 breast
MDA-MB-435 = test system: MDA-MB-435
MOLT-4 leukemia = test system: MOLT-4 leukemia
NCI-H226 lung = test system: NCI-H226 lung
NCI-H460 lung = test system: NCI-H460 lung
NCI-H522 lung = test system: NCI-H522 lung
NCI/ADR-RES ovarian = test system: NCI/ADR-RES ovarian
OVCAR-3 ovarian = test system: OVCAR-3 ovarian
OVCAR-4 ovarian = test system: OVCAR-4 ovarian
OVCAR-5 ovarian = test system: OVCAR-5 ovarian
OVCAR-8 ovarian = test system: OVCAR-8 ovarian
PC-3 prostate = test system: PC-3 prostate
RPMI-8226 leukemia = test system: RPMI-8226 leukemia
RXF 393 renal = test system: RXF 393 renal
SF-268 CNS = test system: SF-268 CNS
SF-295 CNS = test system: SF-295 CNS
SF-539 CNS = test system: SF-539 CNS
SK-MEL-2 melanoma = test system: SK-MEL-2 melanoma
SK-MEL-28 melanoma = test system: SK-MEL-28 melanoma
SK-MEL-5 melanoma = test system: SK-MEL-5 melanoma
SK-OV-3 ovarian = test system: SK-OV-3 ovarian
SN12C renal = test system: SN12C renal
SNB-19 CNS = test system: SNB-19 CNS
SNB-75 CNS = test system: SNB-75 CNS
SR leukemia = test system: SR leukemia
SW-620 colon = test system: SW-620 colon
T-47D breast = test system: T-47D breast
TK-10 renal = test system: TK-10 renal
U251 CNS = test system: U251 CNS
UACC-257 melanoma = test system: UACC-257 melanoma
UACC-62 melanoma = test system: UACC-62 melanoma
UO-31 renal = test system: UO-31 renal

## N#Cc1c(-c2cccs2)cc(-c2cnccn2)nc1SCC(=O)N/N=C/c1ccccc1
786-0 renal
  GI50: 3.64 µM
  TGI: 14.4 µM
A498 renal
  GI50: 4.46 µM
  TGI: 17.3 µM
A549 NSCLC
  GI50: 5.66 µM
  TGI: 20.2 µM
ACHN renal
  GI50: 6.14 µM
  TGI: 18.7 µM
BT-549 breast
  GI50: 8.31 µM
  TGI: 20.7 µM
CAKI-1 renal
  GI50: 3.66 µM
  TGI: 14.1 µM
CCRF-CEM leukemia
  GI50: 49.9 µM
  TGI: > 100 µM
COLO 205 colon
  GI50: 11.3 µM
  TGI: > 100 µM
DU-145 prostate
  GI50: 3.86 µM
  TGI: 12.7 µM
EKVX NSCLC
  GI50: 6.48 µM
  TGI: 19.4 µM
HCC-2998 colon
  GI50: 10.7 µM
  TGI: 25.1 µM
HCT-116 colon
  GI50: 5.14 µM
  TGI: 17.3 µM
HCT-15 colon
  GI50: 6.88 µM
  TGI: 27.4 µM
HL-60(TB) leukemia
  GI50: > 100 µM
  TGI: > 100 µM
HOP-62 NSCLC
  GI50: 3.2 µM
  TGI: 11 µM
HOP-92 NSCLC
  GI50: 2.26 µM
  TGI: 8.49 µM
HS 578T breast
  GI50: 6.77 µM
  TGI: 31.8 µM
HT29 colon
  GI50: 4.98 µM
  TGI: 21.3 µM
IGROV1 ovarian
  GI50: 5.09 µM
  TGI: 17.3 µM
K-562 leukemia
  GI50: 10.8 µM
  TGI: > 100 µM
KM12 colon
  GI50: 9.18 µM
  TGI: > 100 µM
LOX IMVI melanoma
  GI50: 2.8 µM
  TGI: 10 µM
M14 melanoma
  GI50: 4.98 µM
  TGI: 16.4 µM
MALME-3M melanoma
  GI50: 3.33 µM
  TGI: 9.49 µM
MCF7 breast
  GI50: 3.52 µM
  TGI: 14.8 µM
MDA-MB-231 breast
  GI50: 4.23 µM
  TGI: 15.1 µM
MDA-MB-435
  GI50: 4.49 µM
  TGI: 16.2 µM
MOLT-4 leukemia
  GI50: 47 µM
  TGI: > 100 µM
NCI-H226 lung
  GI50: 3.41 µM
  TGI: 12.9 µM
NCI-H460 lung
  GI50: 3.93 µM
  TGI: 13.3 µM
NCI-H522 lung
  GI50: 10.3 µM
  TGI: 23.9 µM
NCI/ADR-RES ovarian
  GI50: 4.95 µM
  TGI: 16.7 µM
OVCAR-3 ovarian
  GI50: 3.88 µM
  TGI: 12.3 µM
OVCAR-4 ovarian
  GI50: 3.61 µM
  TGI: 15.3 µM
OVCAR-5 ovarian
  GI50: 10.4 µM
  TGI: 23.3 µM
OVCAR-8 ovarian
  GI50: 6.01 µM
  TGI: 19.4 µM
PC-3 prostate
  GI50: 6.29 µM
  TGI: 19.2 µM
RPMI-8226 leukemia
  GI50: 3.46 µM
  TGI: 20.9 µM
RXF 393 renal
  GI50: 2.5 µM
  TGI: 6.97 µM
SF-268 CNS
  GI50: 10.3 µM
  TGI: 24.6 µM
SF-295 CNS
  GI50: 4.92 µM
  TGI: 17.1 µM
SF-539 CNS
  GI50: 6.64 µM
  TGI: 19.3 µM
SK-MEL-2 melanoma
  GI50: 10.3 µM
  TGI: 23 µM
SK-MEL-28 melanoma
  GI50: 4.06 µM
  TGI: 14.5 µM
SK-MEL-5 melanoma
  GI50: 3.52 µM
  TGI: 13 µM
SK-OV-3 ovarian
  GI50: 14.7 µM
  TGI: 27.9 µM
SN12C renal
  GI50: 6.15 µM
  TGI: 18.8 µM
SNB-19 CNS
  GI50: 7.21 µM
  TGI: 19.8 µM
SNB-75 CNS
  GI50: 3.3 µM
  TGI: 18.5 µM
SR leukemia
  GI50: 11.2 µM
  TGI: 35.8 µM
SW-620 colon
  GI50: 4.97 µM
  TGI: 20.2 µM
T-47D breast
  GI50: 2.94 µM
  TGI: 15.7 µM
TK-10 renal
  GI50: 4.51 µM
  TGI: 15.3 µM
U251 CNS
  GI50: 3.43 µM
  TGI: 12.1 µM
UACC-257 melanoma
  GI50: 15.1 µM
  TGI: 48.6 µM
UACC-62 melanoma
  GI50: 8.67 µM
  TGI: 21 µM
UO-31 renal
  GI50: 6.1 µM
  TGI: 19.6 µM
